{"source": "paper PMC9907720", "about": "(Antiviral research, 2022)", "key": {"AD169^R [1]": {"tested_on": "AD169^R", "assay": "Cell pre-treatment wash / no wash infection assay", "type": "cell-based, Human cytomegalovirus", "conditions": "cells pre-treated, AD169^R 30 mins at 4°C; MBX-4992 10μM, heparin 50μg/ml; 24hpi"}, "CMV IE1 protein": {"tested_on": "CMV IE1 protein", "assay": "Western blot of IE1 protein in AD169^R-infected NHDFs", "type": "cell-based, Human cytomegalovirus", "conditions": "AD169^R-infected NHDF, 24hpi; MBX-4992 1-10 μM, ganciclovir 5 μM, convallotoxin 0.01 μM"}, "AD169^R [2]": {"tested_on": "AD169^R", "assay": "Infectivity assay, AD169^R infection of ARPE-19", "type": "cell-based, Human cytomegalovirus", "conditions": "AD169^R-infected ARPE-19, 24hpi"}, "AD169^R [3]": {"tested_on": "AD169^R", "assay": "Infectivity assay, AD169^R infection of NHDF", "type": "cell-based, Human cytomegalovirus", "conditions": "AD169^R-infected NHDF, 24hpi"}, "AD169^IE2-YFP": {"tested_on": "AD169^IE2-YFP", "assay": "High-content screening / dose response assay, AD169^IE2-YFP infection of HFF", "type": "cell-based, Human cytomegalovirus", "conditions": "read-out: anti-CMV activity IC50, secondary validation assays"}, "TB40/E [4]": {"tested_on": "TB40/E", "assay": "Infectivity assay, TB40/E infection of ARPE-19", "type": "cell-based, Human cytomegalovirus", "conditions": "TB40/E-infected ARPE-19, 24hpi"}, "TB40/E [5]": {"tested_on": "TB40/E", "assay": "Infectivity assay, TB40/E infection of NHDF", "type": "cell-based, Human cytomegalovirus", "conditions": "TB40/E-infected NHDF, 24hpi"}, "MCMV Smith": {"tested_on": "MCMV Smith", "assay": "Herpes virus panel, MCMV qPCR", "type": "cell-based, Murine cytomegalovirus", "conditions": "MEF"}, "GP Lung": {"tested_on": "GP Lung", "conditions": "GP Lung cells, GpCMV assay"}, "BCBL-1": {"tested_on": "BCBL-1", "conditions": "BCBL-1 cells, HHV-8 assay"}, "Akata": {"tested_on": "Akata", "conditions": "Akata cells, EBV assay"}, "[6]": {"tested_on": "AD169^R and TB40/E strains", "assay": "Infectivity assay, AD169^R and TB40/E in NHDF and ARPE-19", "type": "cell-based, Human cytomegalovirus", "conditions": "read-out: IC50 values (range), NHDF and ARPE-19 cells, 24hpi"}, "HSV-1 E-377": {"tested_on": "HSV-1 E-377", "assay": "Herpes virus panel, HSV-1 CPE", "type": "cell-based, Herpes simplex virus 1", "conditions": "HSV-1 E-377, HFF"}, "yellow fever": {"tested_on": "yellow fever", "type": "cell-based"}, "hepatitis B": {"tested_on": "hepatitis B", "assay": "Other viral pathogens, hepatitis B", "type": "cell-based", "conditions": "data not shown"}, "HHV-6B Z29": {"tested_on": "HHV-6B Z29", "assay": "Herpes virus panel, HHV-6B qPCR", "type": "cell-based, Human herpes virus 6B", "conditions": "HHV-6B Z29, MOLT-3, qPCR"}, "VZV Ellen": {"tested_on": "VZV Ellen", "assay": "Herpes virus panel, VZV CPE", "type": "cell-based, Varicella-Zoster virus", "conditions": "HFF"}, "respiratory syncytial": {"tested_on": "respiratory syncytial", "assay": "Other viral pathogens, respiratory syncytial virus", "type": "cell-based", "conditions": "data not shown"}, "EBV Akata": {"tested_on": "EBV Akata", "assay": "Herpes virus panel, EBV qPCR", "type": "cell-based, Epstein-Barr virus", "conditions": "Akata cells"}, "influenza A H1N1": {"tested_on": "influenza A H1N1", "assay": "Other viral pathogens, influenza A H1N1", "type": "cell-based", "conditions": "data not shown"}, "dengue": {"tested_on": "dengue", "assay": "Other viral pathogens, dengue", "type": "cell-based", "conditions": "data not shown"}, "MOLT-3": {"tested_on": "MOLT-3", "conditions": "MOLT-3, HHV-6B assay"}, "HHV-8 BCBL-1": {"tested_on": "HHV-8 BCBL-1", "assay": "Herpes virus panel, HHV-8 qPCR", "type": "cell-based, Human herpes virus 8", "conditions": "HHV-8 BCBL-1, BCBL-1 cells"}, "HSV-2 G": {"tested_on": "HSV-2 G", "assay": "Herpes virus panel, HSV-2 CPE", "type": "cell-based, Herpes simplex virus 2", "conditions": "HFF"}, "HCMV AD169": {"tested_on": "HCMV AD169", "assay": "Herpes virus panel, HCMV AD169 CPE", "type": "cell-based, Human cytomegalovirus", "conditions": "HCMV AD169, HFF"}, "HCMV GDGr K17 (GCV^R)": {"tested_on": "HCMV GDGr K17 (GCV^R)", "type": "cell-based, Human cytomegalovirus", "conditions": "HFF, CPE"}, "AD169^R [7]": {"tested_on": "AD169^R", "assay": "Virus pre-incubation wash / no wash infection assay", "type": "cell-based, Human cytomegalovirus", "conditions": "MBX-4992 pre-incubated with virus, 24hpi"}, "Zika virus": {"tested_on": "Zika virus", "assay": "Other viral pathogens, Zika virus", "type": "cell-based", "conditions": "data not shown"}, "MEF": {"tested_on": "MEF", "conditions": "MCMV assay"}, "GpCMV 22122": {"tested_on": "GpCMV 22122", "assay": "Herpes virus panel, GpCMV qPCR", "type": "cell-based, Guinea pig cytomegalovirus", "conditions": "GpCMV 22122, GP Lung cells"}}, "note": "pIC50: −log10 of the molar value. Like-named read-outs stand apart in the source and are kept apart here.", "data": [{"compound": "heparin [reference compound]", "values": [{"measurement": "virus infection, compound present during infection", "setting": "AD169^R [1]", "value": "significantly inhibited virus during infection"}]}, {"compound": "C[C@@H]1O[C@@H](O[C@H]2CC[C@]3(C=O)[C@H]4CC[C@]5(C)[C@@H](C6=CC(=O)OC6)CC[C@]5(O)[C@@H]4CC[C@]3(O)C2)[C@H](O)[C@H](O)[C@H]1O", "note": "[convallatoxin]", "values": [{"measurement": "IE1 expression (Western blot)", "setting": "CMV IE1 protein", "value": "inhibited IE1 expression"}]}, {"compound": "Nc1nc(O)c2ncn(COC(CO)CO)c2n1", "note": "[GCV, ganciclovir]", "values": [{"measurement": "IE1 expression (Western blot)", "setting": "CMV IE1 protein", "value": "did not impact IE1 expression"}]}, {"compound": "Cc1nc(Nc2ccc(NC(=O)c3ccco3)cc2)cc(-n2cccn2)n1", "note": "[MBXC-4302]", "values": [{"measurement": "pIC50", "setting": "AD169^R [2]", "value": 5.24}, {"measurement": "pIC50", "setting": "AD169^R [3]", "value": 5.52}, {"measurement": "pIC50", "setting": "AD169^IE2-YFP", "value": 5.49}, {"measurement": "pIC50", "setting": "TB40/E [4]", "value": "~5.35"}, {"measurement": "pIC50", "setting": "TB40/E [5]", "value": "~5.35"}]}, {"compound": "Cc1nc(Nc2ccc(NC(=O)c3ccco3)cc2)cc(N2CCCC2)n1", "note": "[MBX-4992]", "values": [{"measurement": "pIC50", "setting": "MCMV Smith", "value": 5.35}, {"measurement": "CC50", "setting": "GP Lung", "value": 119, "unit": "µM"}, {"measurement": "CC50", "setting": "BCBL-1", "value": "> 100", "unit": "µM"}, {"measurement": "CC50", "setting": "Akata", "value": "> 100", "unit": "µM"}, {"measurement": "pIC50", "setting": "[6]", "value": "5.32 to 5.72"}, {"measurement": "pIC50", "setting": "HSV-1 E-377", "value": "< 4.52"}, {"measurement": "IE1 expression (Western blot)", "setting": "CMV IE1 protein", "value": "decrease in IE1 expression"}, {"measurement": "antiviral activity", "setting": "yellow fever", "value": "did not exhibit activity"}, {"measurement": "antiviral activity", "setting": "hepatitis B", "value": "did not exhibit activity"}, {"measurement": "pIC50", "setting": "HHV-6B Z29", "value": 4.36}, {"measurement": "pIC50", "setting": "VZV Ellen", "value": "< 4.52"}, {"measurement": "CC50", "setting": "HFF; HCMV AD169 assay", "value": "> 150", "unit": "µM"}, {"measurement": "CC50", "setting": "HFF; HSV-1 assay", "value": 60.6, "unit": "µM"}, {"measurement": "CC50", "setting": "HFF; HSV-2 assay", "value": "> 150", "unit": "µM"}, {"measurement": "CC50", "setting": "HFF; VZV assay", "value": 139, "unit": "µM"}, {"measurement": "antiviral activity", "setting": "respiratory syncytial", "value": "did not exhibit activity"}, {"measurement": "pIC50", "setting": "EBV Akata", "value": 4.51}, {"measurement": "antiviral activity", "setting": "influenza A H1N1", "value": "did not exhibit activity"}, {"measurement": "antiviral activity", "setting": "dengue", "value": "did not exhibit activity"}, {"measurement": "CC50", "setting": "MOLT-3", "value": "> 100", "unit": "µM"}, {"measurement": "pIC50", "setting": "HHV-8 BCBL-1", "value": 5.00}, {"measurement": "pIC50", "setting": "HSV-2 G", "value": "< 3.82"}, {"measurement": "pIC50", "setting": "HCMV AD169", "value": 5.77}, {"measurement": "pIC50", "setting": "HCMV GDGr K17 (GCV^R)", "value": 5.74}, {"measurement": "virus infection, compound present during infection", "setting": "AD169^R [1]", "value": "significantly inhibited virus during infection"}, {"measurement": "decrease of virus infection, virus pre-incubated then washed", "setting": "AD169^R [7]", "value": "~ 25%"}, {"measurement": "antiviral activity", "setting": "Zika virus", "value": "did not exhibit activity"}, {"measurement": "CC50", "setting": "MEF", "value": "> 150", "unit": "µM"}, {"measurement": "pIC50", "setting": "GpCMV 22122", "value": "< 4.52"}]}]}
